From patent US10004701B2, “Methods and compositions for treating infection” (UNIVERSITY OF ROCHESTER, priority 2012, dated 2018) come the findings set out here.

Test in all cases: AK assay 384-well format, Prestwick library screening
One assay deals with E. faecium. Type of assay: cell-based, Enterococcus faecium. The settings on record: for fold induction at 50 µM: Enterococcus faecium, 3 h.
Assay [1] deals with S. aureus strain USA300-0114. The format is cell-based, Staphylococcus aureus. The settings on record: for fold induction at 50 µM: Staphylococcus aureus, USA300, 3 h.
A further assay concerns K. pneumoniae. Type of assay: cell-based, Klebsiella pneumoniae. Particulars: for fold induction at 50 µM: Klebsiella pneumoniae, 3 h.
Assay [2] has as its system A. baumannii strain 98-37-09. Type of assay: cell-based, Acinetobacter baumannii. Particulars: for fold induction at 50 µM: Acinetobacter baumannii, 983709, 3 h.
For another assay, the system named is P. aeruginosa. Type of assay: cell-based, Pseudomonas aeruginosa. The settings on record: for fold induction at 50 µM: Pseudomonas aeruginosa, 3 h.
The subject of the next assay is E. cloacae. The format is cell-based, Enterobacter cloacae. Particulars: for fold induction at 50 µM: Enterobacter cloacae, 3 h.
For another assay, the system named is E. coli. Type of assay: cell-based, Escherichia coli. Particulars: for fold induction at 50 µM: Escherichia coli, 3 h.
Where [3] appears, read: 50 μM final drug concentration, cutoff for positive-scoring molecules 3-fold increase, read-out: AK-based Prestwick Library Screening Results, E. faecium (fold increase in extracellular AK activity).
Where [4] appears, read: 50 μM final drug concentration, cutoff for positive-scoring molecules 3-fold increase, read-out: AK-based Prestwick Library Screening Results, S. aureus (fold increase in extracellular AK activity).
[5] abbreviates: 50 μM final drug concentration, cutoff for positive-scoring molecules 3-fold increase, read-out: AK-based Prestwick Library Screening Results, K. pneumoniae (fold increase in extracellular AK activity).
[6] abbreviates: 50 μM final drug concentration, cutoff for positive-scoring molecules 3-fold increase, read-out: AK-based Prestwick Library Screening Results, A. baumannii (fold increase in extracellular AK activity).
The mark [7] stands for this setting: 50 μM final drug concentration, cutoff for positive-scoring molecules 3-fold increase, read-out: AK-based Prestwick Library Screening Results, P. aeruginosa (fold increase in extracellular AK activity).
Where [8] appears, read: 50 μM final drug concentration, cutoff for positive-scoring molecules 3-fold increase, read-out: AK-based Prestwick Library Screening Results, E. cloacae (fold increase in extracellular AK activity).
[9] abbreviates: 50 μM final drug concentration, cutoff for positive-scoring molecules 3-fold increase, read-out: AK-based Prestwick Library Screening Results, E. coli (fold increase in extracellular AK activity).
[10] abbreviates: 50 μM final drug concentration, 384-well format, cutoff for positive-scoring molecules 3-fold increase, read-out: AK-based Prestwick Library Screening Results, E. faecium (increase in extracellular AK activity).
Where [11] appears, read: 50 μM final drug concentration, 384-well format, cutoff for positive-scoring molecules 3-fold increase, read-out: AK-based Prestwick Library Screening Results, S. aureus (increase in extracellular AK activity).
The mark [12] stands for this setting: 50 μM final drug concentration, 384-well format, cutoff for positive-scoring molecules 3-fold increase, read-out: AK-based Prestwick Library Screening Results, K. pneumoniae (increase in extracellular AK activity).
Where [13] appears, read: 50 μM final drug concentration, 384-well format, cutoff for positive-scoring molecules 3-fold increase, read-out: AK-based Prestwick Library Screening Results, A. baumannii (increase in extracellular AK activity).
Where [14] appears, read: 50 μM final drug concentration, 384-well format, cutoff for positive-scoring molecules 3-fold increase, read-out: AK-based Prestwick Library Screening Results, P. aeruginosa (increase in extracellular AK activity).
Setting [15] is: 50 μM final drug concentration, 384-well format, cutoff for positive-scoring molecules 3-fold increase, read-out: AK-based Prestwick Library Screening Results, E. cloacae (increase in extracellular AK activity).
Setting [16] is: 50 μM final drug concentration, 384-well format, cutoff for positive-scoring molecules 3-fold increase, read-out: AK-based Prestwick Library Screening Results, E. coli (increase in extracellular AK activity).
Setting [17] is: 50 μM final drug concentration, 384-well format, cutoff for positive-scoring molecules 3-fold increase.

Counter-ions that a name gives are not always drawn. Like-named read-outs stand apart in the source and are kept apart here.

On to `C[N+]12CCC(CC1)C(OC(=O)C(O)(c1ccccc1)c1ccccc1)C2` (stereo not drawn) [Clidinium bromide], for which the fold induction at 50 µM turned out to be 0.9 in the assay with E. faecium (read-out: AK-based Prestwick Library Screening Results, E. faecium (fold increase in extracellular AK activity)); 0.9 in assay [1] (read-out: AK-based Prestwick Library Screening Results, S. aureus (fold increase in extracellular AK activity)); 0.8 in the assay with K. pneumoniae (read-out: AK-based Prestwick Library Screening Results, K. pneumoniae (fold increase in extracellular AK activity)); 1.1 in assay [2] (read-out: AK-based Prestwick Library Screening Results, A. baumannii (fold increase in extracellular AK activity)); 1.1 in the assay with P. aeruginosa (read-out: AK-based Prestwick Library Screening Results, P. aeruginosa (fold increase in extracellular AK activity)); 1.3 with E. cloacae (read-out: AK-based Prestwick Library Screening Results, E. cloacae (fold increase in extracellular AK activity)). The fold induction at 50 µM in the assay on E. coli (read-out: AK-based Prestwick Library Screening Results, E. coli (fold increase in extracellular AK activity)) was determined as 1.

On to `O=C(O)COCCN1CCN(C(c2ccccc2)c2ccc(Cl)cc2)CC1` (stereo not drawn) [Cetirizine dihydrochloride], for which the fold induction at 50 µM with E. faecium (planktonic E. faecium, 50 μM final drug concentration, cutoff for positive-scoring molecules 3-fold increase, read-out: AK-based Prestwick Library Screening Results, E. faecium (increase in extracellular AK activity)) worked out at 0.9; in assay [1] (planktonic S. aureus, 50 μM final drug concentration, cutoff for positive-scoring molecules 3-fold increase, read-out: AK-based Prestwick Library Screening Results, S. aureus (increase in extracellular AK activity)), 0.7; with K. pneumoniae (planktonic K. pneumoniae, 50 μM final drug concentration, cutoff for positive-scoring molecules 3-fold increase, read-out: AK-based Prestwick Library Screening Results, K. pneumoniae (increase in extracellular AK activity)), 0.7; in assay [2] (planktonic A. baumannii, 50 μM final drug concentration, cutoff for positive-scoring molecules 3-fold increase, read-out: AK-based Prestwick Library Screening Results, A. baumannii (increase in extracellular AK activity)), 1.1; in the assay on P. aeruginosa (planktonic P. aeruginosa, 50 μM final drug concentration, cutoff for positive-scoring molecules 3-fold increase, read-out: AK-based Prestwick Library Screening Results, P. aeruginosa (increase in extracellular AK activity)), 0.9; with E. cloacae (planktonic E. cloacae, 50 μM final drug concentration, cutoff for positive-scoring molecules 3-fold increase, read-out: AK-based Prestwick Library Screening Results, E. cloacae (increase in extracellular AK activity)), 0.9. In the assay on E. coli (planktonic E. coli, 50 μM final drug concentration, cutoff for positive-scoring molecules 3-fold increase, read-out: AK-based Prestwick Library Screening Results, E. coli (increase in extracellular AK activity)), the fold induction at 50 µM came to 0.9.

As to `CC[N+](C)(C)Cc1ccccc1Br` [Bretylium tosylate], the fold induction at 50 µM was 1 with E. faecium (setting [3]); 1.3 in assay [1] (setting [4]); 1.1 in the assay on K. pneumoniae (setting [5]); 1.3 in assay [2] (setting [6]); 1.2 with P. aeruginosa (setting [7]); 1.6 in the assay on E. cloacae (setting [8]). Moreover, the fold induction at 50 µM in the assay with E. coli (setting [9]) is 1.3.

With `CC(C)(C)NC(=O)[C@@H]1C[C@@H]2CCCC[C@@H]2CN1C[C@@H](O)[C@H](Cc1ccccc1)NC(=O)[C@H](CC(N)=O)NC(=O)c1ccc2ccccc2n1` [Saquinavir mesylate], the fold induction at 50 µM came to 1.2 with E. faecium (planktonic E. faecium, 50 μM final drug concentration, […], read-out: AK-based Prestwick library screening result, E. faecium (fold increase in extracellular AK activity)); 0.9 in assay [1] (planktonic S. aureus, 50 μM final drug concentration, […], read-out: AK-based Prestwick library screening result, S. aureus (fold increase in extracellular AK activity)); 1.1 with K. pneumoniae (planktonic K. pneumoniae, 50 μM final drug concentration, […], read-out: AK-based Prestwick library screening result, K. pneumoniae (fold increase in extracellular AK activity)); 1.5 in assay [2] (planktonic A. baumannii, 50 μM final drug concentration, […], read-out: AK-based Prestwick library screening result, A. baumannii (fold increase in extracellular AK activity)); 1 in the assay with P. aeruginosa (planktonic P. aeruginosa, 50 μM final drug concentration, […], read-out: AK-based Prestwick library screening result, P. aeruginosa (fold increase in extracellular AK activity)); 1.8 with E. cloacae (planktonic E. cloacae, 50 μM final drug concentration, […], read-out: AK-based Prestwick library screening result, E. cloacae (fold increase in extracellular AK activity)). Besides, in the assay with E. coli (planktonic E. coli, 50 μM final drug concentration, […], read-out: AK-based Prestwick library screening result, E. coli (fold increase in extracellular AK activity)), the fold induction at 50 µM stood at 1.3.

Take `CCCCOc1ccc(CC(=O)NO)cc1` [Bufexamac]: the fold induction at 50 µM in the assay with E. faecium (setting [10]) was 0.9; in assay [1] (setting [11]), 0.4; in the assay on K. pneumoniae (setting [12]), 0.5; in assay [2] (setting [13]) it was 0.5; in the assay on P. aeruginosa (setting [14]), 0.5; in the assay with E. cloacae (setting [15]), 0.6. Further, in the assay with E. coli (setting [16]), the fold induction at 50 µM was 0.5.

In the case of Iproniazide phosphate, in the assay on E. faecium (setting [17]), the “AK-based Prestwick Library Screening Results, E. faecium (increase in extracellular AK activity)” value amounted to 1.0. Moreover, the “AK-based Prestwick Library Screening Results, S. aureus (increase in extracellular AK activity)” value in assay [1] (setting [17]) is listed as 1.0. Also, the “AK-based Prestwick Library Screening Results, K. pneumoniae (increase in extracellular AK activity)” value in the assay on K. pneumoniae (setting [17]) stood at 0.7. Moreover, the “AK-based Prestwick Library Screening Results, A. baumannii (increase in extracellular AK activity)” value in assay [2] (setting [17]) came to 0.7. For the same compound, the “AK-based Prestwick Library Screening Results, P. aeruginosa (increase in extracellular AK activity)” value in the assay on P. aeruginosa (setting [17]) is 0.7. The “AK-based Prestwick Library Screening Results, E. cloacae (increase in extracellular AK activity)” value in the assay on E. cloacae (setting [17]) amounted to 0.8. In the assay with E. coli (setting [17]), the “AK-based Prestwick Library Screening Results, E. coli (increase in extracellular AK activity)” value turned out to be 0.8.

Consider `CO/N=C(\C(=O)N[C@@H]1C(=O)N2C(C(=O)O)=C(COC(N)=O)CS[C@H]12)c1ccco1` [Cefuroxime sodium salt], for which the fold induction at 50 µM with E. faecium (setting [3]) stood at 1; in assay [1] (setting [4]) it was 3.4; in the assay with K. pneumoniae (setting [5]), 2.4; in assay [2] (setting [6]), 1.4; with P. aeruginosa (setting [7]), 1.6; in the assay with E. cloacae (setting [8]), 1.6. In addition, the fold induction at 50 µM in the assay with E. coli (setting [9]) came out at 12.1.

As to `CC(C)OC(=O)C(C)(C)Oc1ccc(C(=O)c2ccc(Cl)cc2)cc1` [Fenofibrate], the fold induction at 50 µM in the assay with E. faecium (setting [10]) is 0.8; in assay [1] (setting [11]) it was 0.8; with K. pneumoniae (setting [12]) it was 0.6; in assay [2] (setting [13]), 0.7; in the assay on P. aeruginosa (setting [14]) it was 0.8; with E. cloacae (setting [15]), 1.2. Also, the fold induction at 50 µM with E. coli (setting [16]) worked out at 0.8.

`Cc1cc2c(cc1S(N)(=O)=O)S(=O)(=O)CCC2` [Meticrane]: the fold induction at 50 µM with E. faecium (50 μM final drug concentration, 384-well format, […], read-out: AK-based Prestwick Library Screening Results, E. faecium (increase in extracellular AK activity)) is 0.9; in assay [1] (50 μM final drug concentration, 384-well format, […], read-out: AK-based Prestwick Library Screening Results, S. aureus (increase in extracellular AK activity)), 0.8; in the assay with K. pneumoniae (50 μM final drug concentration, 384-well format, […], read-out: AK-based Prestwick Library Screening Results, K. pneumoniae (increase in extracellular AK activity)), 0.5; in assay [2] (50 μM final drug concentration, 384-well format, […], read-out: AK-based Prestwick Library Screening Results, A. baumannii (increase in extracellular AK activity)), 0.8; with P. aeruginosa (50 μM final drug concentration, 384-well format, […], read-out: AK-based Prestwick Library Screening Results, P. aeruginosa (increase in extracellular AK activity)), 0.6; with E. cloacae (50 μM final drug concentration, 384-well format, […], read-out: AK-based Prestwick Library Screening Results, E. cloacae (increase in extracellular AK activity)) it was 0.7. For the same compound, in the assay on E. coli (50 μM final drug concentration, 384-well format, […], read-out: AK-based Prestwick Library Screening Results, E. coli (increase in extracellular AK activity)), the fold induction at 50 µM amounted to 0.6.
